Data from paper PMC7400207, “It Takes Two: Dimerization Is Essential for the Broad-Spectrum Predatory and Defensive Activities of the Venom Peptide Mp1a from the Jack Jumper Ant Myrmecia pilosula” (Biomedicines, 2020).
≈ marks a conversion by molar mass, not a printed value. Where “and” joins values, the source holds several entries; their conditions need not be identical. Equal entries are not always repeated.

Experiments:
S. aureus ATCC 43300 = settings: taken from Dekan et al.; cited from earlier work
P. aeruginosa FADDI-PA70 = settings: taken from Dekan et al.; cited from earlier work
S. aureus NRS 17 = settings: taken from Dekan et al.; cited from earlier work
S. aureus NARSA-VRS10 = settings: taken from Dekan et al.; cited from earlier work
[1] = tested on: S. pneumoniae ATCC 700677; settings: taken from Dekan et al.; cited from earlier work
Drosophila melanogaster = Drosophila melanogaster microinjection assay; type: in vivo; settings: intrathoracic injection, 50 nL, adult female flies, lethality at 24 h; three dose-response curves, ± SEM
Method: The insecticidal activity of the chemically synthesized 1a and analogues thereof were determined by injection into adult female D. melanogaster aged 3–5 days (mass 0.7–0.9 mg) as described previously. Analogues were dissolved in water and intrathoracically injected using pulled glass capillaries at a volume of 50 nL per fruit fly, and the results were compared against an equivalent injection volume of water alone. All injections were performed in the morning or early afternoon. At 24 h post-injection flies were monitored for lethality. Dose–response curves were constructed using 7–10 doses per analogue (each dose tested in eight flies) and three separate dose–response curves were constructed for each analogue. The lethality in the groups receiving the analogues were adjusted using the respective control group lethality using the Henderson-Tilton formula [20]. The median lethal dose (LD50) of each analogue was calculated based on the three dose–response curves using GraphPad Prism 8.0 [21]. One-way ANOVA followed by Dunnett’s multiple comparison test were used to compare LD50 values.

[2] = tested on: K. pneumoniae ATCC BAA-2146; settings: taken from Dekan et al.; cited from earlier work
S. aureus NARSA-VRS1 = settings: taken from Dekan et al.; cited from earlier work
HEK293 cells = settings: HEK293, 24 h, resazurin; cited from earlier work
Method: Table 2 Summary of bioassay data for synthetic Mp1a and analogues, including effective concentration (EC50) for activation of F11 cells, concentrations that caused 50% inhibition (IC50) for inhibition of larval development of H. contortus; median lethal dose (LD50) for lethal insecticidal effects on D. melanogaster; concentrations required to induce 50% cell death (CC50) for effects on viability o | column: Cytotoxicity (CC50 µM) ^b

In the case of `CC[C@H](C)[C@H](N)C(=O)N[C@@H](CC(=O)O)C(=O)N[C@@H](Cc1c[nH]c2ccccc12)C(=O)N[C@@H](CCCCN)C(=O)N[C@@H](CCCCN)C(=O)N[C@H](C(=O)N[C@@H](CC(=O)O)C(=O)N[C@@H](Cc1c[nH]c2ccccc12)C(=O)N[C@@H](CCCCN)C(=O)N[C@@H](CCCCN)C(=O)N[C@H](C(=O)N[C@@H](CO)C(=O)N[C@@H](CCCCN)C(=O)N[C@@H](CCCCN)C(=O)N[C@H](C(=O)N[C@H]1CSSC[C@@H](C(=O)N[C@@H](CCCCN)C(=O)N[C@@H](CCCCN)C(=O)N[C@H](C(=O)N[C@@H](CC(C)C)C(=O)N[C@@H](CCCCN)C(=O)N[C@@H](CCC(N)=O)C(N)=O)C(C)C)NC(=O)[C@H](C(C)C)NC(=O)[C@H]([C@@H](C)O)NC(=O)[C@H](CCCCN)NC(=O)[C@H](C(C)C)NC(=O)[C@H](CC(C)C)NC(=O)[C@H](C(C)C)NC(=O)[C@@H](NC(=O)[C@@H](NC(=O)CNC(=O)[C@H](CCCCN)NC(=O)[C@H](CO)NC(=O)[C@@H](NC(=O)[C@H](CC(C)C)NC(=O)CNC(=O)[C@@H](NC(=O)[C@@H](N)CC(C)C)[C@@H](C)CC)C(C)C)[C@@H](C)O)CSSC[C@@H](C(=O)N[C@@H](CCCCN)C(=O)N[C@@H](Cc2ccccc2)C(=O)N[C@@H](CC(C)C)C(N)=O)NC(=O)[C@H](C)NC(=O)[C@H](CCCCN)NC(=O)[C@H](CC(C)C)NC(=O)[C@H](CCSC)NC(=O)[C@H](C(C)C)NC(=O)[C@H](CCCCN)NC1=O)[C@@H](C)O)C(C)C)C(C)C` [Analogue 1a, ∆-myrtoxin-Mp1a], the MIC (S. aureus ATCC 43300) is listed as 0.8 µM (≈ 4.49 µg/mL), the MIC (P. aeruginosa FADDI-PA70) is listed as 0.8 µM (≈ 4.49 µg/mL) and the MIC (S. aureus NRS 17) is listed as 0.4 to 0.8 µM. For the same compound, the MIC (S. aureus NARSA-VRS10) was 0.8 µM (≈ 4.49 µg/mL), the MIC [1] was 0.4 to 0.8 µM and the “Insecticidal Activity (LD50)” value (Drosophila melanogaster) was 260 pmol/g and 260.1 ± 16.6 pmol/g. The MIC [2] was 0.1 to 0.2 µM, the MIC (S. aureus NARSA-VRS1) was 3.2 to 6.4 µM and the “Cytotoxicity (CC50)” value (HEK293 cells) was 0.6 µM.
